According to US20260158149A1, “GLYCOSYLATED PRODRUGS” (UNIVERSITEIT LEIDEN, priority 2021, published 2026):
“Also recorded” adds a separate entry of the source. Like-named read-outs stand apart in the source and are kept apart here.

Columns and labels:
[1] = system: il1b, il6, mmp9, mmp13, il8 mRNA; experiment: qPCR of pro-inflammatory genes after tail wounding; assay type: in vivo, Zebrafish (Danio rerio)
Text: (§1) For the tail fin amputation experiments, 3 days post fertilization (dpf) larvae from the Tg(mpx:GFP^i114/mpeg1:mCherry^umsF001) line were anesthetized in 0.02% buffered aminobenzoic acid ethyl ester (tricaine) in egg water and placed on a 2% agarose-coated petri dish. The tails were partially amputated with a 1 mm sapphire blade (World Precision Instruments) under a Leica M165C stereomicroscope (Leica Microsystems, Wetzlar, Germany). Chemical treatment (or 0.1% DMSO as vehicle treatment) was started at 2 h before the amputation (pretreatment) and was continued for 4 h after the tail fin amputation (20 larvae per group, unless indicated otherwise), at which time point the larvae were fixed in 4% paraformaldehyde (PFA) overnight at 4° C. and stored at 4° C. until further examination. In some experiments, a 24 h treatment with miglustat, ME656 or MZ31 was started at 2 dpf, and these treatments were continued during the pretreatment and treatment with the other chemicals. For imaging of larvae from the Tg(mpx:GFP^i114/mpeg1:mCherry^umsF001) line, a LeicaMZ16FA fluorescence stereomicroscope with LAS 3.7 software was used. Neutrophils were detected by GFP fluorescence and macrophages by mCherry fluorescence. The neutrophil numbers were determined by blinded manual counting in a pre-determined area. When larvae from gba2^−/− or gr^s357mutant lines were used, neutrophil labeling was performed with the TSA fluorescein detection kit (PerkinElmer) for specific staining of Myeloperoxidase (Mpx)-positive cells, following the manufacturer's instructions.
(§2) For experiments in zebrafish, gene expression was measured using 3 dpf embryos. Groups of 15 larvae were collected in TRIzol reagent (Invitrogen) and mRNA was isolated using the miRNeasy mini kit (Qiagen), according to the manufacturer's instructions. For experiments in HeLa cells, samples were collected from a single well from 6 well plates (80% confluent) in TRIzol reagent and mRNA was isolated using the RNeasy mini kit. Zebrafish and cells samples were treated with DNAse utilizing the DNA-Free™ kit (Ambion). The cDNA synthesis was performed using iScript cDNA synthesis kit (Bio-Rad) using 1 μg of RNA per sample. For qPCR, 10 μM of forward and 10 μM of reverse primer, 12.5 μL of iQ SYBR Green Supermix (Bio-Rad), and 2 μL of cDNA were added to the qPCR reaction mixture. […] The qPCR reactions were performed on a MyiQ-single-color real-time PCR detection system (Bio-Rad) with initial denaturation for 3 min at 95° C. and 40 cycles of 15 s at 95.5° C., 15 s at 60° C., and 30 s at 72° C. Cycle threshold values (Ct values, i.e. the cycle numbers at which a threshold value of the fluorescence intensity was reached) were determined for each sample. The gene expression level for each sample was normalized using the expression of ppial (peptidylprolyl isomerase Ab (cyclophilin A)) for zebrafish samples, and 18S rRNA for human cells. The fold change per sample (compared to the respective control group) was calculated using the ΔΔCt method.

[2] = zebrafish, in vivo
Protocol: (§4) Zebrafish embryos at 2 hpf received a chemical treatment, as indicated, with daily refreshment of the solutions, until 96 hpf. Then, the treatments were stopped and embryos were incubated in egg water until 5 dpf to avoid cross-reactivity with the compounds of the cortisol antibody used in the ELISA. Then, the treatments were stopped and replaced with egg water. At 5 dpf, the larvae were collected in an Eppendorf tube and 100 μL of ice-cold phosphate-buffered saline (PBS) was added. The larvae were homogenized using a BulletBlender® for 3 min at 8,000 rpm. Ethyl acetate was added to the homogenate and the supernatant was gathered and vaporized. A volume of 150 μl of 0.2% Bovine serum albumin (Sigma Aldrich) dissolved in phosphate-buffered saline (PBS) was added to the samples and frozen. Whole-body cortisol of the zebrafish larvae was determined by ELISA (Demeditec Diagnostics GmbH, Kiel-Wellsee, Germany), following the manufacturer's instructions. In each experiment, three biological replicates were used for each treatment group, and the colorimetric assay was performed using technical duplicates.

[3] = system: Gr; experiment: Transactivation activity of Gr in Tg(9xGCRE-HSV.UI23:EGFP) reporter line; assay type: in vivo, Zebrafish (Danio rerio); settings: 24 h treatment, 3 dpf larvae
Protocol: The Tg(9xGCRE-HSV.UI23:EGFP)^ia20 zebrafish reporter line expresses enhanced green fluorescent protein (EGFP) under the control of a promoter containing an array of nine GREs. To study the effect of chemical treatments on the transactivation activity of the Gr, 15 zebrafish embryos per group (2 dpf) were treated with the indicated compounds for 24 hours. The transactivation activity of Gr induced by the treatments was assessed using a LeicaMZ16FA fluorescence stereomicroscope supported by LAS 3.7 software. The integrated intensity of the EGFP signal in the larvae was determined using ImageJ software.

[4] = biological target: T1, human GR (Homo sapiens, UniProt P04150); experiment: PolarScreen Glucocorticoid Receptor Competitor Assay; settings: glucosylation or gentiobiosylation of Pdn
T1 sequence (P04150 1-777): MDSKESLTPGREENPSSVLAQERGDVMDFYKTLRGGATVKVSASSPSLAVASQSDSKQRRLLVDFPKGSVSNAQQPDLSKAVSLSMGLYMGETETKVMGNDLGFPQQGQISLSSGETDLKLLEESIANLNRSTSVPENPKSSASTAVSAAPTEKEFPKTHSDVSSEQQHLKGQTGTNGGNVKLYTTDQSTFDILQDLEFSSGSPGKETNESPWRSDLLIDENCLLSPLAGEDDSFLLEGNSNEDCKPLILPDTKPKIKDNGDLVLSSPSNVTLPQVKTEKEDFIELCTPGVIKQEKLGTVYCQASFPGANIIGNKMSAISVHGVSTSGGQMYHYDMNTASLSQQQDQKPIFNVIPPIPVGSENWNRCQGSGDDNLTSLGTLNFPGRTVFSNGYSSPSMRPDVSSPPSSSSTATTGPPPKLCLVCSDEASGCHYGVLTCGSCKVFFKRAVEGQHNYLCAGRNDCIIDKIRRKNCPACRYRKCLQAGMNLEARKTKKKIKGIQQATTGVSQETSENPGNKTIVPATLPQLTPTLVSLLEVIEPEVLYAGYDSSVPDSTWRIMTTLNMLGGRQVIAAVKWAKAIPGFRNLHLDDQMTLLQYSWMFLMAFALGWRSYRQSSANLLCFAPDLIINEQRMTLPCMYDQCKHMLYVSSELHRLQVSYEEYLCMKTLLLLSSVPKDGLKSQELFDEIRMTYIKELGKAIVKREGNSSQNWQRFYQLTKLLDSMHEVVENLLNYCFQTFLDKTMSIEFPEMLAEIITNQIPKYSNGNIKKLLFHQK

[5] = system: neutrophils migrated to the wounded area; experiment: Tail fin amputation assay: neutrophil migration to the wounded area; assay type: in vivo, Zebrafish (Danio rerio); settings: for reduction in neutrophil migration in the presence of MZ31: GBA2 inhibitor MZ31; for migration of neutrophils towards the wounded area: wild type larvae, 4 h after tail wounding; for inhibition of neutrophil migration in Gr deficient larvae: gr mutant line (gr-/-)
Protocol: Zebrafish (Danio rerio) were maintained and handled according to the guidelines from the Zebrafish Model Organism Database (https://zfin.org/) and in compliance with the directives of the local animal welfare committee of Leiden University. To maintain circadian rhythmicity, adult fish were exposed to a 14 h light and 10 h dark cycle. Fertilization was performed by natural spawning at the beginning of the light period. Fertilized eggs were collected and raised at 28° C. in egg water (60 μg/ml Instant Ocean sea salts and 0.0025% methylene blue). The following zebrafish lines were used in this study: AB/TL wild type, the transgenic lines Tg(mpx:GFP^i114/mpeg1:mCherry^umsF001) (Bernut et al., (2014). Mycobacterium abscessus cording prevents phagocytosis and promotes abscess formation. Proc Natl Acad Sci USA 111, E943-952; Renshaw et al., (2006). A transgenic zebrafish model of neutrophilic inflammation. Blood 108, 3976-3978), and Tg(9xGCRE-HSV.UI123:EGFP)^ia20 (Benato et al., (2014). A living biosensor model to dynamically trace glucocorticoid transcriptional activity during development and adult life in zebrafish. Mol Cell Endocrinol 392, 60-72), and the mutant lines gba2^−/− (Lelieveld et al., (2019). Role of beta-glucosidase 2 in aberrant glycosphingolipid metabolism: model of glucocerebrosidase deficiency in zebrafish. J Lipid Res 60, 1851-1867) and gr^s357 (Ziv et al., (2013). An affective disorder in zebrafish with mutation of the glucocorticoid receptor. Mol Psychiatry 18, 681-691).
as §1

[6] = system: Gr target genes fkbp5, pck1 and nfkbiaa; experiment: qPCR of Gr target genes fkbp5, pck1, nfkbiaa; assay type: in vivo, Zebrafish (Danio rerio)
Protocol: as §2

[7] = zebrafish, in vivo; remark: listed apart in the source
Protocol: (§5) Zebrafish embryos at 2 hpf received a chemical treatment, as indicated, with daily refreshment of the solutions, until 5 dpf. At 5 dpf, the larvae were collected in an Eppendorf tube and 100 μL of ice-cold glucose buffer was added to each sample. The larvae were homogenized using a BulletBlender® for 3 min at 8,000 rpm. The homogenates were then centrifuged at 4° C. for 8 min at 11000 rpm and the supernatant was stored at −20° C. Whole-body glucose concentrations were determined using a Glucose Colorimetric Assay kit (Cayman Chemical, USA), according to the manufacturer's instructions. In each experiment, three biological replicates were used for each treatment group, and the colorimetric assay was performed using technical duplicates.

[8] = system: regenerated tail fin; experiment: Regeneration of the tail fin after wounding; assay type: in vivo, Zebrafish (Danio rerio); settings: 5 dpf larvae, wounded at 2 dpf
Protocol: (§3) When the regeneration of the tail fins after wounding or the larval body length was used as a readout, chemical treatments of the embryos were started at 2 hours post fertilization (hpf) and continued until 5 dpf. During this period, solutions were refreshed daily. At 5 dpf, larvae were imaged using a LeicaMZ16FA fluorescence stereomicroscope supported by LAS 3.7 software, and the length of the larvae was measured using ImageJ software (15 larvae per treatment group). For the regeneration experiments, tail fins were amputated at 2 dpf and larvae were imaged at 5 dpf (15 larvae per treatment group). The newly grown tissue can be distinguished from the old tissue, enabling precise measurement of the size of the newly grown tissue using ImageJ software.

[9] = system: macrophages migrated to the wounded area; experiment: Tail fin amputation assay: macrophage migration; assay type: in vivo, Zebrafish (Danio rerio); settings: wild type larvae, 4 h after wounding
Protocol: Zebrafish (Danio rerio) were maintained and handled according to the guidelines from the Zebrafish Model Organism Database (https://zfin.org/) and in compliance with the directives of the local animal welfare committee of Leiden University. To maintain circadian rhythmicity, adult fish were exposed to a 14 h light and 10 h dark cycle. Fertilization was performed by natural spawning at the beginning of the light period. Fertilized eggs were collected and raised at 28° C. in egg water (60 μg/ml Instant Ocean sea salts and 0.0025% methylene blue). […]
For the tail fin amputation experiments, 3 days post fertilization (dpf) larvae from the Tg(mpx:GFP^i114/mpeg1:mCherry^umsF001) line were anesthetized in 0.02% buffered aminobenzoic acid ethyl ester (tricaine) in egg water and placed on a 2% agarose-coated petri dish. […] For imaging of larvae from the Tg(mpx:GFP^i114/mpeg1:mCherry^umsF001) line, a LeicaMZ16FA fluorescence stereomicroscope with LAS 3.7 software was used. Neutrophils were detected by GFP fluorescence and macrophages by mCherry fluorescence. The neutrophil numbers were determined by blinded manual counting in a pre-determined area. […]

[10] = Whole-body glucose measurement in larvae; settings: 5 dpf larvae treated from 2 hpf, non-wounded
Protocol: as §5

[11] = Whole-body cortisol measurement using ELISA; settings: 5 dpf larvae treated from 2 hpf, non-wounded
Protocol: as §4

[12] = Larval body length; assay type: in vivo, Zebrafish (Danio rerio); settings: 5 dpf, treatment from 2 hpf
Protocol: as §3

| SMILES | expression of the pro-inflammatory genes il1b, il6 and il8 [1] | whole body cortisol level [2] | whole body cortisol level under wounding conditions with MZ31 [2] | transactivation activity of Gr (GFP signal in GRE:GFP reporter fish line) [3] | decrease in the binding affinity relative to Pdn [4] [fold] | reduction in neutrophil migration in the presence of MZ31 [5] | migration of neutrophils towards the wounded area [5] | expression of Gr target genes fkbp5, pck1 and nfkbiaa [6] | whole body glucose level [7] | whole body glucose level under wounding conditions with MZ31 [7] | wounding-induced increase in expression of il1b, il6 and mmp9 [1] | inhibition of neutrophil migration in Gr deficient larvae [5] | tissue regeneration (length of regenerated tail fin) [8] | migration of macrophages [9] | whole body glucose level [10] | whole body cortisol level [11] | reduction in neutrophil migration in the presence of miglustat ([5]; non-specific GBA inhibitor miglustat) | larval length [12] | wounding-induced increase in expression of il1b, il6, mmp9 and mmp13 [1] |
| --- | --- | --- | --- | --- | --- | --- | --- | --- | --- | --- | --- | --- | --- | --- | --- | --- | --- | --- | --- |
| C[C@]12C=CC(=O)C=C1CC[C@@H]1[C@@H]2[C@@H](O)C[C@@]2(C)[C@H]1CC[C@]2(O)C(=O)CO[C@@H]1O[C@H](CO)[C@@H](O)[C@H](O)[C@H]1O [GPdn, 21-O-Glucose-Prednisolone] | these effects were similar to those observed upon Pdn and GPdn treatment | only slightly reduced the cortisol concentrations | reduced upon treatment with MZ31 | neither GPdn nor GbPdn induced the transactivation activity of the Gr | ~30 | independent of GBA2 activity | inhibited the neutrophil migration | lack of effect | did not increase the glucose level | reduced upon treatment with MZ31 | – | – | – | – | – | – | – | – | – |
| C[C@H]1C[C@H]2[C@@H]3CCC4=CC(=O)C=C[C@]4(C)[C@@]3(Cl)[C@@H](O)C[C@]2(C)[C@@]1(O)C(=O)CO [Bec, beclomethasone] | – | – | – | large increase in GFP signal | – | – | decreases the migration of neutrophils; also recorded: inhibits neutrophil migration; also recorded: inhibited the neutrophil migration | – | – | – | strongly suppressed | absent | decrease | leaves the migration of macrophages unaffected | increased the glucose concentration | decrease in cortisol level; also recorded: decreased the cortisol level; also recorded: significantly larger decrease | – | – | – |
| CC(C)=CCCC(C)(O)[C@H]1CC[C@]2(C)[C@@H]1[C@H](O)C[C@@H]1[C@@]3(C)CC[C@H](O)C(C)(C)[C@@H]3CC[C@]12C (stereo in doubt) [PPD, Protopanaxadiol] | – | – | – | did not cause an increase in the fluorescence intensity | – | did not affect the action of PPD | – | did not increase the expression | – | – | strongly suppressed | the inhibition of neutrophil migration was abolished | did decrease | – | did not affect the glucose level | did decrease the cortisol concentration | did not affect the action of PPD | did decrease | – |
| C[C@@H]1C[C@H]2[C@@H]3CCC4=CC(=O)C=C[C@]4(C)[C@@]3(F)[C@@H](O)C[C@]2(C)[C@@]1(O)C(=O)CO[C@@H]1O[C@H](C(=O)O)[C@@H](O)[C@H](O)[C@H]1O [GDex, dexamethasone-glucuronide] | – | – | – | did not induce the transactivation activity of the Gr | – | independent of GBA2 activity | inhibits neutrophil migration; also recorded: inhibited the neutrophil migration | did not induce the transactivation activity of the Gr | – | – | – | absent | – | without any effect on macrophage migration | did not increase the glucose level | very minor decrease in cortisol level; also recorded: only slightly reduced the cortisol concentrations | – | – | strongly reduced |
